Source: the NIST ThermoML archive (doi:10.1016/j.jct.2016.03.030)

Assay: xn = mol fraction of the nth substance listed
Conditions: 100 kPa, Liquid; for viscosity: Falling or rolling sphere viscometry; for mass density: Vibrating tube method

CCCCC[N+]1(C)CCCCC1.[Br-] [1-methyl-1-pentylpiperidinium bromide] + O
Conditions	mass density [kg/m3]	viscosity [mPa·s]
298.15 K, x1 = 0.003	1003.5	–
298.15 K, x1 = 0.0072	1012	–
298.15 K, x1 = 0.0119	1021.1	–
298.15 K, x1 = 0.0427	1070.7	2.961
298.15 K, x1 = 0.0615	1091.4	4.385
298.15 K, x1 = 0.0839	1110.2	6.713
298.15 K, x1 = 0.1192	1131.1	12.34
298.15 K, x1 = 0.1491	1144	17.14
298.15 K, x1 = 0.2004	1159.3	27.79
298.15 K, x1 = 0.2206	1163.7	41.58
298.15 K, x1 = 0.2393	1167.7	58.11
298.15 K, x1 = 0.2655	1172.3	95.22
298.15 K, x1 = 0.2745	1173.8	107.8
303.15 K, x1 = 0.003	1002	–
303.15 K, x1 = 0.0072	1010.4	–
303.15 K, x1 = 0.0119	1019.3	–
303.15 K, x1 = 0.0427	1067.8	2.439
303.15 K, x1 = 0.0615	1088.2	3.663
303.15 K, x1 = 0.0839	1106.7	5.513
303.15 K, x1 = 0.1192	1127.5	9.841
303.15 K, x1 = 0.1491	1140.4	12.93
303.15 K, x1 = 0.2004	1153.7	21.75
303.15 K, x1 = 0.2206	1160.2	29.41
303.15 K, x1 = 0.2393	1164.2	44.51
303.15 K, x1 = 0.2655	1168.8	68.59
303.15 K, x1 = 0.2745	1170.3	77.28
308.15 K, x1 = 0.003	1000.2	–
308.15 K, x1 = 0.0072	1008.6	–
308.15 K, x1 = 0.0119	1017.3	–
308.15 K, x1 = 0.0427	1064.8	1.881
308.15 K, x1 = 0.0615	1084.9	3.087
308.15 K, x1 = 0.0839	1103.2	4.576
308.15 K, x1 = 0.1192	1123.9	8.001
308.15 K, x1 = 0.1491	1136.8	9.983
308.15 K, x1 = 0.2004	1152.1	16.35
308.15 K, x1 = 0.2206	1156.7	23.02
308.15 K, x1 = 0.2393	1160.7	33.69
308.15 K, x1 = 0.2655	1165.3	50.52
308.15 K, x1 = 0.2745	1166.8	56.51
313.15 K, x1 = 0.003	998.2	–
313.15 K, x1 = 0.0072	1006.5	–
313.15 K, x1 = 0.0119	1015.1	–
313.15 K, x1 = 0.0427	1061.8	1.639
313.15 K, x1 = 0.0615	1081.5	2.632
313.15 K, x1 = 0.0839	1099.7	3.846
313.15 K, x1 = 0.1192	1120.3	6.581
313.15 K, x1 = 0.1491	1133.2	8.698
313.15 K, x1 = 0.2004	1148.2	14.09
313.15 K, x1 = 0.2206	1153.1	18.11
313.15 K, x1 = 0.2393	1157.1	25.85
313.15 K, x1 = 0.2655	1161.8	38.16
313.15 K, x1 = 0.2745	1163.3	42.34
318.15 K, x1 = 0.003	996.1	–
318.15 K, x1 = 0.0072	1004.2	–
318.15 K, x1 = 0.0119	1012.8	–
318.15 K, x1 = 0.0427	1058.7	1.441
318.15 K, x1 = 0.0615	1078.1	2.267
318.15 K, x1 = 0.0839	1096.1	3.269
318.15 K, x1 = 0.1192	1116.6	5.458
318.15 K, x1 = 0.1491	1129.5	7.311
318.15 K, x1 = 0.2004	1144.5	11.22
318.15 K, x1 = 0.2206	1149.5	14.1
318.15 K, x1 = 0.2393	1153.6	20.21
318.15 K, x1 = 0.2655	1158.3	29.44
318.15 K, x1 = 0.2745	1159.8	32.5
323.15 K, x1 = 0.003	993.7	–
323.15 K, x1 = 0.0072	1001.9	–
323.15 K, x1 = 0.0119	1010.3	–
323.15 K, x1 = 0.0427	1055.5	1.261
323.15 K, x1 = 0.0615	1074.7	1.945
323.15 K, x1 = 0.0839	1092.5	2.77
323.15 K, x1 = 0.1192	1113	4.499
323.15 K, x1 = 0.1491	1125.8	6.029
323.15 K, x1 = 0.2004	1141.2	9.723
323.15 K, x1 = 0.2206	1145.9	12.33
323.15 K, x1 = 0.2393	1150.1	15.88
323.15 K, x1 = 0.2655	1154.8	22.79
323.15 K, x1 = 0.2745	1156.3	25.06
328.15 K, x1 = 0.003	990.9	–
328.15 K, x1 = 0.0072	999.4	–
328.15 K, x1 = 0.0119	1007.7	–
328.15 K, x1 = 0.0427	1052.2	1.11
328.15 K, x1 = 0.0615	1071.2	1.682
328.15 K, x1 = 0.0839	1088.9	2.369
328.15 K, x1 = 0.1192	1109.3	3.749
328.15 K, x1 = 0.1491	1122.1	5.354
328.15 K, x1 = 0.2004	1137.5	8.195
328.15 K, x1 = 0.2206	1142.3	10.68
328.15 K, x1 = 0.2393	1146.5	12.74
328.15 K, x1 = 0.2655	1151.3	18.03
328.15 K, x1 = 0.2745	1152.8	19.71
333.15 K, x1 = 0.003	989.3	–
333.15 K, x1 = 0.0072	996.3	–
333.15 K, x1 = 0.0119	1004.9	–
333.15 K, x1 = 0.0427	1048.8	1.034
333.15 K, x1 = 0.0615	1067.6	1.474
333.15 K, x1 = 0.0839	1085.2	2.055
333.15 K, x1 = 0.1192	1105.5	3.014
333.15 K, x1 = 0.1491	1118.4	4.513
333.15 K, x1 = 0.2004	1132.9	7.033
333.15 K, x1 = 0.2206	1138.7	8.945
333.15 K, x1 = 0.2393	1143	10.47
333.15 K, x1 = 0.2655	1147.7	14.56
333.15 K, x1 = 0.2745	1149.3	15.86
338.15 K, x1 = 0.003	986	–
338.15 K, x1 = 0.0072	993.1	–
338.15 K, x1 = 0.0119	1002	–
338.15 K, x1 = 0.0427	1045.4	0.886
338.15 K, x1 = 0.0615	1064	1.3
338.15 K, x1 = 0.0839	1081.4	1.835
338.15 K, x1 = 0.1192	1101.8	2.724
338.15 K, x1 = 0.1491	1114.7	4.032
338.15 K, x1 = 0.2004	1131.2	6.088
338.15 K, x1 = 0.2206	1135.1	7.421
338.15 K, x1 = 0.2393	1139.4	8.696
338.15 K, x1 = 0.2655	1144.2	11.95
338.15 K, x1 = 0.2745	1145.8	12.94
343.15 K, x1 = 0.003	983.6	–
343.15 K, x1 = 0.0072	990.1	–
343.15 K, x1 = 0.0119	999	–
343.15 K, x1 = 0.0427	1041.8	0.85
343.15 K, x1 = 0.0615	1060.3	1.142
343.15 K, x1 = 0.0839	1077.7	1.634
343.15 K, x1 = 0.1192	1098	2.382
343.15 K, x1 = 0.1491	1110.9	3.697
343.15 K, x1 = 0.2004	1126.4	5.341
343.15 K, x1 = 0.2206	1131.5	6.243
343.15 K, x1 = 0.2393	1135.9	7.34
343.15 K, x1 = 0.2655	1140.6	9.976
343.15 K, x1 = 0.2745	1142.3	10.75
